We go through two molecules from patent US20230031009A1, “TREATMENT FOR CHEMOBRAIN” (YALE UNIVERSITY, priority 2020, published 2023).

Holding throughout (assay type): in vivo, mouse
Data set [1] relates to female C57BL/6 mice. As to the kind of experiment: Open-field exploration (OFE): locomotor activity and anxiety (thigmotaxis). As to the method: Seven-week-old female C57BL/6 mice were purchased from Charles River (Wilmington, Mass., USA) and allowed to habituate to the facility for 7 days, followed by 3 days of handling before the start of the experiment. Mice were randomly assigned into groups, with all groups represented in each cage. […]
Behavioral experiments were adapted from a published protocol (35). Data were analyzed blinded to the experimental conditions. […]
For the OFE task, each mouse was allowed to explore the arena for 10 min. The camera footage was then analyzed using ToxTrac, a published program for the total distance moved and time spent in the peripheral versus the central areas (36). For the DOR task, pairs of 50-mL tubes filled with corn cob bedding were taped cap-down to pre-determined positions in the arena. […] The camera footage was then analyzed for bouts of interactions with the tubes. […] Casual touching of the tubes in passing, or leaning onto the tubes to look around were not counted. The preference index for the displaced object was calculated as 100*(time spent with displaced object)/(total time spent with both displaced and familiar objects). The preference index for the familiar object was similarly calculated. […]

The subject of data set [2] is InsP3R1, NCS1, phospholipase C (PLC-β1). Nature of the data set: Western blot of brain tissue for other InsP3R pathway proteins. The note with it: 30 DPI, paclitaxel. On the procedure: (§1) Golgi-Cox staining solutions were prepared in advance, according to a published protocol (37). For tissue collection, each mouse was first anesthetized for ˜30 s with […] isoflurane, and then quickly decapitated with scissors. The skull was opened, and the brain was extracted and washed briefly in ice-cold 1× phosphate-buffered saline solution (PBS, AmericanBio). A razor blade was then used to dissect the brain into two hemispheres along the medial longitudinal fissure. One hemisphere was immediately dropped into a 25-mL scintillation vial containing 10 mL of impregnation stock solution. The other hemisphere was rapidly dissected into the cerebellum, hippocampus, frontal cortex, and midbrain, snap-frozen in liquid nitrogen, and then subsequently stored at −80° C. until further use.
(§2) Frozen tissues were thawed in RIPA buffer containing protease inhibitor, phenylmethylsulfonyl fluoride (PMSF), and sodium orthovanadate (Santa Cruz), homogenized with a polytron, and then spun down twice at 13000 rpm, 4° C. to remove cell debris. Protein concentration was quantified using Pierce BCA protein assay kit (ThermoFisher Scientific) according to the manufacturer's instruction. Western blots were performed using the NuPAGE system (ThermoFisher Scientific) and PVDF membrane with the Biorad wet transfer system (Bio-Rad Laboratories). Approximately 20 μg total protein was loaded into each lane. […]
In general terms: In western blotting, separated proteins are transferred to a membrane and probed.

Data set [3] can be described thus: Body weight during and after paclitaxel injections. As to the method:
(§3) Seven-week-old female C57BL/6 mice were purchased from Charles River (Wilmington, Mass., USA) and allowed to habituate to the facility for 7 days, followed by 3 days of handling before the start of the experiment. Mice were randomly assigned into groups, with all groups represented in each cage. Depending on the treatment group, lithium chloride (Sigma-Aldrich, 12.8 mg/kg in 0.9% saline), chelerythrine chloride (Cayman Chemical, 2 mg/kg in 0.4% DMSO in saline), or the appropriate vehicle was administered intraperitoneally 1 h before injection of vehicle (20% 50:50 Cremophor EL: ethanol, 80% saline) or paclitaxel (Cayman Chemical, 20 mg/kg in 20% 50:50 Cremophor EL: ethanol, 80% saline) to induce cognitive impairment. Each mouse received a total of 4 pairs of injections over 8 days. During and after injections, mice were weighed daily and checked for general health and any sign of pain or distress.

The subject of data set [4] is layers 2/3 cortical pyramidal neurons. Nature of the data set: Golgi-Cox staining and Sholl analysis of cortical neurons. On the procedure: as §1
Golgi-Cox staining was performed according to a published protocol (37). Briefly, the samples were impregnated with a potassium dichromate and mercuric chloride solution at room temperature for 7 days, followed by immersion in a cryoprotection solution for 4 days, and then sectioned into […] frontal slices with a vibratome. The Golgi Atlas of the Postnatal Mouse Brain was used as the reference to identify the section position of the slices (38). Slices corresponding to frontal sections 10 and 11 in the atlas were selected for imaging the hippocampus and the parietal cortex. Slices corresponding to frontal sections 4 and 5 were selected for imaging the prefrontal cortex. The selected slices were mounted on 0.3% gelatin-coated slides, developed and dehydrated through a series of increasing alcohol concentrations, then with xylene, and finally mounted in Eukitt solution (Sigma Aldrich) for imaging. Z-stack images of different regions, including the dentate gyrus and the frontal cortex, were collected using a Zeiss LSM 710 Duo microscope with 20× and 60× objectives. […] Spines were imaged from basal dendritic branches at least […] away, and apical dendritic branches at least […] away from the cell soma. Scholl analysis, total dendritic length, number of branch points, and spine density were performed with ImageJ using the Simple Neurite Tracer plugin (39). Spine density was quantified as the number of protrusions on dendritic branches per μm dendrite length

The test system of a further data set is pMARCKS (S152/156). Nature of the data set: Western blot of brain tissue for pMARCKS. The note with it: cortex, 24 h after paclitaxel injection. As to the method:
as §1, §2

Data set [5] relates to granule cells in the dentate gyrus of the hippocampus. Nature of the data set: Golgi-Cox staining and Sholl analysis of hippocampal neurons. The settings on record: 30 DPI. As to the method:
as §1
Golgi-Cox staining was performed according to a published protocol (37). Briefly, the samples were impregnated with a potassium dichromate and mercuric chloride solution at room temperature for 7 days, followed by immersion in a cryoprotection solution for 4 days, and then sectioned into […] frontal slices with a vibratome. The Golgi Atlas of the Postnatal Mouse Brain was used as the reference to identify the section position of the slices (38). […] Spine density was quantified as the number of protrusions on dendritic branches per μm dendrite length

The test system of data set [6] is female C57BL/6 mice. As to the kind of experiment: Displaced object recognition (DOR) task in paclitaxel-induced model of cognitive impairment. The settings on record: for preference for the displaced object (DOR task): saline and paclitaxel 4×20 mg/kg, 20 mg/kg. On the procedure:
as §3
Behavioral experiments were adapted from a published protocol (35). Data were analyzed blinded to the experimental conditions. Open-field exploration (OFE) and displaced object recognition (DOR) tasks were carried out over two consecutive days (FIG. 4.1). The experimental arena was a 35×70×35 cm opaque, white Plexiglas chamber. The arena was covered with ˜1 cm of standard corn cob bedding. […]
For the OFE task, each mouse was allowed to explore the arena for 10 min. The camera footage was then analyzed using ToxTrac, a published program for the total distance moved and time spent in the peripheral versus the central areas (36). For the DOR task, pairs of 50-mL tubes filled with corn cob bedding were taped cap-down to pre-determined positions in the arena. […] The camera footage was then analyzed for bouts of interactions with the tubes. […] Casual touching of the tubes in passing, or leaning onto the tubes to look around were not counted. The preference index for the displaced object was calculated as 100*(time spent with displaced object)/(total time spent with both displaced and familiar objects). The preference index for the familiar object was similarly calculated.

For the next data set, the system named is PKCα. Nature of the data set: Western blot of brain tissue for PKCα. On the procedure: as §1
Frozen tissues were thawed in RIPA buffer containing protease inhibitor, phenylmethylsulfonyl fluoride (PMSF), and sodium orthovanadate (Santa Cruz), homogenized with a polytron, and then spun down twice at 13000 rpm, 4° C. to remove cell debris. Protein concentration was quantified using Pierce BCA protein assay kit (ThermoFisher Scientific) according to the manufacturer's instruction. Western blots were performed using the NuPAGE system (ThermoFisher Scientific) and PVDF membrane with the Biorad wet transfer system (Bio-Rad Laboratories). Approximately 20 μg total protein was loaded into each lane. Information about the antibodies used is included in Supp.

Where [7] appears, read: medial prefrontal cortex, comparison among 4 groups.
Where [8] appears, read: saline/paclitaxel vs the other three groups.

The structures appear in SMILES notation. “Also recorded” adds a separate entry of the source.

Turning to `COc1ccc2c(c[n+](C)c3c4cc5c(cc4ccc23)OCO5)c1OC` [chelerythrine, chelerythrine chloride], in the data set on female C57BL/6 mice [1] (chelerythrine groups vs other groups, 4 DPI and 22 DPI), the “locomotor activity and anxiety (total distance moved, thigmotaxis)” value is listed as “no differences”.

As to `CC(=O)O[C@H]1C(=O)[C@@]2(C)[C@H]([C@H](OC(=O)c3ccccc3)[C@]3(O)C[C@H](OC(=O)[C@H](O)[C@@H](NC(=O)c4ccccc4)c4ccccc4)C(C)=C1C3(C)C)[C@]1(OC(C)=O)CO[C@@H]1C[C@@H]2O` [paclitaxel], in the data set on female C57BL/6 mice [1] (mouse, in vivo, 20 mg/kg), the “locomotor activity and anxiety (total distance, thigmotaxis)” value is recorded as “neither impaired locomotor activity nor caused increased anxiety”. In addition, the “levels of other InsP3R pathway proteins (InsP3R1, NCS1, PLC-β1)” value in data set [2] was “No changes”. Also, the body weight loss was 5-10% in data set [3] (after 2 paclitaxel injections, normalized to first day of injection (FIG. S1)) and “approximately 5%” in data set [3] (during injections, normalized to first day of injection (FIG. S3)). In addition, the “weight loss, comparison among groups” value in data set [3] (over the injection duration) is “No significant differences; also recorded: No significant weight loss”. Besides, the total dendritic length entry in data set [4] (frontal cortex, saline and paclitaxel vs other groups, 30 DPI) is given as “significant reduction”; in data set [5] (saline and paclitaxel vs other groups), “significant reduction”. The “dendritic complexity (Sholl analysis)” value in data set [4] (frontal cortex, saline and paclitaxel, 30 DPI) is “significant reduction in dendritic complexity”; in data set [5] (saline and paclitaxel vs saline/vehicle, particularly 20-90 μm from the soma), “reduced dendritic arborization; also recorded: substantial reduction in dendritic complexity”. Also, in data set [4] (setting [7]), the “basal dendrites: complexity (Sholl analysis)” value was “no significant differences; also recorded: largely spared; also recorded: not observed in basal dendrites”. Besides, in data set [4] (setting [7]), the basal dendritic length result is on record as “no significant differences”. The basal spine density result in data set [4] (setting [7]) is “no significant differences”. Also, in data set [4] (saline/paclitaxel vs saline/vehicle, particularly 110-230 μm), the “apical dendrites: dendritic arborization (Sholl analysis)” value is recorded as “reduced dendritic arborization; also recorded: primarily due to differences in apical dendrites”. Further, in data set [4] (setting [8]), the apical dendritic length result is “significant reduction”. Besides, the apical spine density entry in data set [4] (setting [8]) is “significant reduction”. For the same molecule, in the data set with pMARCKS (S152/156), the “pMARCKS (S152/156) level” value was “trend towards increased pMARCKS”. Moreover, in the data set with female C57BL/6 mice [6] (4×20 mg/kg paclitaxel, after optimization, time not stated), the DOR task performance entry is “sufficient to impair DOR task performance without additional side effects”. Further, the “preference for the displaced object (DOR task)” value in the data set on female C57BL/6 mice [6] (5 DPI) is “no discrimination between the two objects; also recorded: did not discriminate between the objects; also recorded: impaired short-term spatial memory acquisition; also recorded: no preference for either object”; in the data set with female C57BL/6 mice [6] (23 DPI), “did not discriminate between the objects; also recorded: impaired short-term spatial memory acquisition; also recorded: persisted up to 23 DPI”. Also, the PKCα protein level result in the data set with PKCα (cortex, 30 DPI (chronic), 4×20 mg/kg paclitaxel) is listed as “upregulation”; with PKCα (cortex, 24 h after a single 20 mg/kg paclitaxel injection (acute)) it was “upregulation”; in the data set with PKCα (hippocampus, 24 h after a single 20 mg/kg paclitaxel injection (acute)), “upregulation”.
